Test [1] deals with HUVSMCs. Put plainly: Cell proliferation assay, HUVSMCs (manual count, Trypan blue exclusion). In kind it is cell-based, human. Here is the method:
(§1) Cells were seeded at a concentration of 2×10^5 for HUVECs and 2×10^4 for HUVSMCs in serum free media on 12 well plates after detachment. The cells were allowed to adhere overnight in growth media, and then incubated with X-VIVO media (Cambrex) with or without cytokines (10 ng/ml FGF-2 and 2 μg/ml heparin or 10 ng/ml VEGF-A). For HRMEC experiments, cells were seeded at a concentration of 1×10^5 and allowed to settle overnight in 6-cm plates coated with attachment factor (Cell Signaling, Danvers, Mass.). The next day, fresh 10% FBS and EBM medium was added. […] After incubation, HUVEC were detached with collagenase/EDTA and HUVSMC and HRMEC were detached with trypsin/EDTA. The cells were manually counted with a Hemacytometer (Hausser Scientific, Horsham, Pa.) using Trypan blue exclusion.

The test system of test [2] is HUVECs. As to the kind of experiment: Cell proliferation assay, HUVECs (manual count, Trypan blue exclusion). In kind it is cell-based, human. The note with it: for HUVEC proliferation: 36 hours. The procedure:
as §1
First, we performed a dose response curve on unstimulated and stimulated serum free HUVECs. […] HUVECs were either unchallenged or challenged with VEGF-A or FGF-2 during the incubation. […] Cell viability was measured at 12, 24, and 36 hours after incubation.

For test [3], the system named is p53. Put plainly: p53/p21 immunofluorescence and Western blot in HUVSMCs. In kind it is cell-based, human. The conditions noted are these: HUVSMC, 7.5 μM, within 8 hours. The procedure: (§2) HUVECs and HUVSMCs were incubated at 2×10^6 in X-VIVO media and HRMECs in EBM with 10% FBS under various conditions as reported in the results. Western blot extracts were prepared by lysing cells attached cells in cold RIPA buffer in the presence of protease inhibitors for HUVEC and HUVSMC and passive lysis buffer (Promega, Madison, Wis.) for HRMEC. After sonication and centrifugation to remove cell debris, the protein yield was quantified using the BCA protein assay kit (Pierce Biotechnology Inc., Rockford, Ill.). Normalized cell lysates were then mixed with sample buffer containing 2-mercaptoethanol and SDS and heated for 5 minutes at 95° C. Equal amounts of protein were run on SDS-polyacrylamide gels before being transferred to PVDF membranes. Binding of the primary antibody against p53, p21, and beta actin was detected with enhanced chemiluminescence reagent (Amersham) using HRP-conjugated secondary antibody (1:10,000, Amersham).

For test [4], the system named is HUVECs. Put plainly: TUNEL assay for apoptosis, HUVECs. In kind it is cell-based, human. The conditions noted are these: serum free HUVEC, 7.5 μM, 24 hours, compared to control. The procedure: HUVECs were plated on collagen coated plastic bottom culture dishes (MatTek Corp., Ashland, Mass.) overnight. […] HRMEC were treated with 15 μM of racemic Nutlin for 24 hours in 10% FBS. The TUNEL assay was performed following instructions provided with the kit (Roche Applied Science, Indianapolis, Ind.). Representative images of the HRMEC experiment were provided with a 4× objective using an Olympus AX70 fluorescence microscope following the addition of a nuclear counter stain. For HUVEC experiments, 5 representative fields with a 20× objective using a Zeiss confocal microscope were captured. 2 masked observers performed cell counts. For wholemount retina staining, TUNEL solution was incubated for 48 hours diluted in PBS plus 0.3% Triton-X 100 after lectin staining.

Test [5] concerns p53. The note with it: HUVEC, 8 hours, compared to Nutlin-3B or control. The procedure:
as §2

Test [6] relates to HUVSMCs. As to the kind of experiment: Flow cytometric analysis for apoptosis (annexin V/propidium iodide), HUVSMCs. In kind it is cell-based, human. The conditions noted are these: HUVSMC, 7.5 μM, 36 hours, compared to control. The text has this:
(§3) HUVECs were detached with collagenase/EDTA and HUVSMCs were detached with trypsin/EDTA. The cells were then washed twice with PBS, and stained with propidium iodide and annexin V-FITC (Annexin V-FITC apoptosis detection kit I, Beckton Dickinson) according to the manufacturer's instructions.
A general note: A flow cytometer gives signals particle by particle.

In test [7] the test system is HUVECs. Put plainly: Matrigel tube assay for in vitro angiogenesis. In kind it is cell-based, human. The conditions noted are these: FGF-2, 24 hours. Here is the method:
Matrigel matrix (Becton Dickinson, San Jose, Calif.) was kept on ice for 24 hours. Then, 200 ill of Matrigel were added to each well of a 24 well culture plate. After hardening the Matrigel at 37° C. for 30 minutes, gels were overlaid with 500 μl of X-VIVO medium containing 3×10^4 HUVECs. […] The effect of Nutlin was inspected 24 hours under an inverted light microscope. Nine overlapping images with a 10× objective were taken of each well to perform tubule length quantification. Adobe Photoshop 7.0 (Adobe Systems Inc., San Jose, Calif.) was used to make a montage image of each well. Each montage image was then imported into LSM Image Browser v3.5 (Carl Zeiss Inc., Thornwood, N.Y.) to measure tubule length. Tubule length was then standardized to the overall pixel area examined. A masked observer assessed all measurements.

The test system of test [8] is HUVECs. Put plainly: Flow cytometric analysis for apoptosis (annexin V/propidium iodide), HUVECs. In kind it is cell-based, human. The note with it: HUVEC, 7.5 μM, 24 hours, compared to the control.
Excerpt: as §3

The subject of test [9] is p53 siRNA infected HUVECs. As to the kind of experiment: Cell viability of p53 siRNA infected HUVECs. In kind it is cell-based, human. The conditions noted are these: 7.5 μM, FGF-2, 48 hours; p53 siRNA vs control siRNA. The procedure: Passage 3 HUVECs were grown to confluence. pRETRO-SUPER and pRETRO-SUPER-p53 viruses were produced by GP2 cells (Clontech, Mountain View, Calif.). Supernatant was filtered and then added to HUVECs in the presence of […] polybrene followed by 1 μg/ml of Puromycin selection for 7 days.
To determine if the p53 pathway is necessary for the observed Nutlin-3 mediated cellular effects, we infected HUVEC with retrovirus expressing either control short interfering RNA (siRNA) or p53 siRNA. […] (A and B) HUVECs were infected with a lentiviral vector expressing p53 siRNA or control siRNA for 48 hours and then underwent Puromycin selection for 72 hours.

“Also recorded” adds a separate entry of the source.

As to `COc1ccc(C2=N[C@@H](c3ccc(Cl)cc3)[C@@H](c3ccc(Cl)cc3)N2C(=O)N2CCNC(=O)C2)c(OC(C)C)c1` [Nutlin-3A], in the test on HUVSMCs [1] (7.5 μM, serum free HUVSMCs activated with FGF-2 or 5% FBS, at 48 to 72 hours), the “HUVSMC proliferation, time course” value is “growth inhibited”. Also, in the test on HUVSMCs [1] (7.5, 15, 30 μM, serum free, unchallenged HUVSMCs, at 36 hours, p>0.05), the “HUVSMC early response to increasing concentrations” value is “did not find an early response”. The “HUVEC growth / cell viability, time course” value in the test on HUVECs [2] (7.5 μM, unstimulated, serum free HUVEC, by 36 hours) is reported as “near complete cell death”. For the same compound, the HUVEC proliferation entry in the test with HUVECs [2] (1, 5 or 10 μM, serum free HUVECs unchallenged or challenged with VEGF-A or FGF-2) is recorded as “inhibit HUVEC proliferation at all tested doses with greater activity at higher concentrations”. For the same compound, the “p53 response (immunofluorescence and Western blot)” value in the test with p53 [3] is listed as “initiated a p53 response; also recorded: increased p53 expression”. For the same compound, the “TUNEL positive cells (apoptosis)” value in the test with HUVECs [4] is on record as “significantly more cells undergoing apoptosis”. Further, the “p53 and p21 protein (Western blot)” value in the test on p53 [5] is “increased p53 protein, and its downstream target p21”. Also, in the test on HUVSMCs [6], the “annexin V and propidium iodide staining (apoptosis)” value is listed as “no significant difference”. In addition, the “dose dependence of capillary tube formation inhibition” value in the test with HUVECs [7] (5 and 7.5 μM) was “dose dependent”. Moreover, the “reduction in capillary tube formation” value in the test on HUVECs [7] (HUVEC on Matrigel, compared to control) amounted to 93%. For the same compound, in the test on HUVECs [8], the “double positive annexin V and propidium iodide cells (late apoptosis)” value was “significantly more double positive annexin V and propidium iodide cells”. For the same compound, in test [9], the “cell viability of p53 siRNA infected HUVECs” value is “p53 siRNA infected cells had become resistant”.
As to `COc1ccc(C2=N[C@H](c3ccc(Cl)cc3)[C@H](c3ccc(Cl)cc3)N2C(=O)N2CCNC(=O)C2)c(OC(C)C)c1` [Nutlin-3B], in the test with HUVECs [2] (10 μM), the HUVEC proliferation result is “little effect on HUVEC proliferation”.

For the origin of these results see US20130225603A1, “MDM2 INHIBITORS FOR TREATMENT OF OCULAR CONDITIONS” (SERRATA LLC, priority 2010, published 2013).
